# In patent US11485736B2 (KSQ Therapeutics, Inc., priority 2018, dated 2022):
# Molecular target: USP1/UAF1 (Homo sapiens (Human), UniProt O94782)
# Experiment: Deubiquitination assay for USP1/UAF1 activity (ubiquitin-rhodamine 110)
# Type: biochemical
# Conditions: Table 2; 0.05 nM USP1/UAF1, 150 nM ubiquitin-rhodamine
# Protocol: Certain Compounds of the Disclosure were assessed for USP1/UAF1 activity in a Ubiquitin Rhodamine assay modified from those described previously.
# Deubiquitinase activity was measured using ubiquitin-rhodamine 110 as a substrate. Cleavage of the amide bond between rhodamine and the c-terminal glycine of ubiquitin yields an increase in fluorescence signal. The assay was conducted in 20 ul total volume of assay buffer (50 mM Tris-HCl, pH 7.8, 0.5 mM EDTA, 0.01% Bovine Serum Albumin, 1 mM DTT, 0.01% Tween-20), and 0.05 nM USP1/UAF1 enzyme.
# Compounds, dissolved in DMSO were tested in dose response format, beginning at 10 uM.
# Compounds depicted below were added to enzyme/assay buffer mix and incubated 10 min.
# Data for all assay formats was calculated as percent inhibition compared with control wells. […] IC50 values were calculated using the standard four parameter curve fitting algorithm in either Prism GraphPad (La Jolla, Calif.) software, or Collaborative Drug Discovery (Burlingame, Calif.) CDD Vault.
# Chain of USP1/UAF1 (O94782 whole entry): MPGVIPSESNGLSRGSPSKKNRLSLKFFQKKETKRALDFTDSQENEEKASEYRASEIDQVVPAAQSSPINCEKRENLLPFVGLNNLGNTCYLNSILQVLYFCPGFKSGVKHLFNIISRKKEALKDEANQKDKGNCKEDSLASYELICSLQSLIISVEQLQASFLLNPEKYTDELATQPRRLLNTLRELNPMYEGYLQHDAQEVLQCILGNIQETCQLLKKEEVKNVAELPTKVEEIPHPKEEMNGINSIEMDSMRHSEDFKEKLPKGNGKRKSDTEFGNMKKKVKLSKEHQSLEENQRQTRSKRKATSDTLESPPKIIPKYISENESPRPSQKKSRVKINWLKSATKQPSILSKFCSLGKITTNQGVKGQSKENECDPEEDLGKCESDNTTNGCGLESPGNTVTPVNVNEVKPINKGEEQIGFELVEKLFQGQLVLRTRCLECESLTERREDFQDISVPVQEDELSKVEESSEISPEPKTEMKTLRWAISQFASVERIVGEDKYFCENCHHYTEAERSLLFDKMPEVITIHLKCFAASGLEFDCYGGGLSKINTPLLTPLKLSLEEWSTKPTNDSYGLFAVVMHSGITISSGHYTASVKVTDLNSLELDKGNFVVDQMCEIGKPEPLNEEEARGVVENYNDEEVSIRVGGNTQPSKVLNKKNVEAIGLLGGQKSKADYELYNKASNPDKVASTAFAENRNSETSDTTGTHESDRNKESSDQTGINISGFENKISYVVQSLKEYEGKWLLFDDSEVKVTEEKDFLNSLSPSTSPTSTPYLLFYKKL
# Chain of USP1/UAF1 (Q8TAF3 whole entry partner): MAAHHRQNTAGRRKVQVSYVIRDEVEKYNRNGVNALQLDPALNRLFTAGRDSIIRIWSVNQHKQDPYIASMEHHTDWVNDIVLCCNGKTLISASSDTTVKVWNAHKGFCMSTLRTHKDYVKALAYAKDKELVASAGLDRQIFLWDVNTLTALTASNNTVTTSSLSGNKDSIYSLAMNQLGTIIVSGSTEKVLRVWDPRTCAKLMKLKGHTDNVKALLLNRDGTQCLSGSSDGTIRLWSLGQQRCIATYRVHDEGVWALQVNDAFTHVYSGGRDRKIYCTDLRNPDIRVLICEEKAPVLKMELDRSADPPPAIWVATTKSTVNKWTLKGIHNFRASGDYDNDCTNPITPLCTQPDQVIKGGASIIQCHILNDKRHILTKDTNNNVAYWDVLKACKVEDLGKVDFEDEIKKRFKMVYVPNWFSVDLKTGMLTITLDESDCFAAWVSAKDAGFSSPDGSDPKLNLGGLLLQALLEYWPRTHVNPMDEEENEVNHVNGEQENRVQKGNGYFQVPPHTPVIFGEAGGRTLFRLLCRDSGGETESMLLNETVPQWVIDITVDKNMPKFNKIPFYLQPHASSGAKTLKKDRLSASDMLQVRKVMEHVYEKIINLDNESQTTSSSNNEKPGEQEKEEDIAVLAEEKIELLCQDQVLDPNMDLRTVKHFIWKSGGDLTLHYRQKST
row,SMILES,IC50 [nM]
1,Cc1nn(Cc2ccc(-c3nc(C(F)(F)F)cn3C)cc2)c2nc(-c3ccccc3C(C)C)ncc12 [drawing 729],< 10
2,COc1cccc(C)c1-c1ncc2cnn(Cc3ccc(-c4nc(C(F)(F)F)cn4C)cc3)c2n1 [drawing 717],10 to 100
3,Cc1nc(-c2ccccc2C(C)C)nc2c1cnn2Cc1ccc(-c2nc(C(F)(F)F)cn2C)cc1,< 10
4,Cc1cc(C(F)F)nn1-c1ccc(Cn2ncc3cnc(-c4cccnc4C(C)C)nc32)cc1 [drawing 710],10 to 100
5,CC(C)c1ccccc1-c1ncc2cnn(Cc3ccc(-c4nc(C(F)(F)F)cn4C4CN(C)C4)cc3)c2n1 [drawing 725],< 10
6,CCS(=O)(=O)c1ccccc1-c1ncc2cnn(Cc3ccc(-c4nc(C(F)(F)F)cn4C)cc3)c2n1 [drawing 709],100 to 200
7,Cc1cc(C(F)(F)F)nn1-c1ccc(Cn2ncc3cnc(-c4cccnc4C(C)C)nc32)cc1 [drawing 713],10 to 100
8,COc1ncnc(C)c1-c1ncc2cnn(Cc3ccc(-c4nc(C(F)(F)F)cn4C)cc3)c2n1 [drawing 712],10 to 100
9,COc1nccc(C#N)c1-c1ncc2cnn(Cc3ccc(-c4nc(C(F)(F)F)cn4C)cc3)c2n1,10 to 100

# Same assay, conditions: Table 3; 0.05 nM USP1/UAF1, 150 nM ubiquitin-rhodamine
row,SMILES,IC50 [nM]
1,COc1ncnc(C2CC2)c1-c1ncc2cnn(Cc3ccc(-c4nc(C(F)(F)F)cn4C4CN(C)C4)cc3)c2n1 [drawing 775],10 to 100
2,COc1ncnc(C2CC2)c1-c1ncc2cnn(Cc3ccc(-c4nc(OC)n(C)n4)cc3)c2n1,> 200
3,CCn1cc(C(F)(F)F)nc1-c1ccc(Cn2ncc3cnc(-c4c(C5CC5)cnn4CC)nc32)cc1 [drawing 771],10 to 100
4,CNc1ncnc(C2CC2)c1-c1ncc2cnn(Cc3ccc(-c4nc(C(F)(F)F)cn4C)cc3)c2n1,10 to 100
5,CCn1cc(C(F)(F)F)nc1-c1ccc(Cn2ncc3cnc(-c4c(OC(F)F)ncnc4C4CC4)nc32)cc1 [drawing 731],< 10
6,COc1ncnc(C2CC2)c1-c1ncc2cnn(Cc3ccc(-n4nc(C(F)(F)F)cc4OC)cc3)c2n1 [drawing 737],10 to 100
7,COc1ncnc(C(C)(C)C)c1-c1ncc2cnn(Cc3ccc(-c4nc(C(F)(F)F)cn4C)cc3)c2n1 [drawing 757],10 to 100
8,"CCn1cc(C(F)(F)F)nc1-c1ccc([C@@H](C)n2ncc3cnc(-c4c(OC)ncnc4C4CCC4)nc32)cc1 (single isomer, unassigned) [drawing 742]",10 to 100
9,CCn1cc(C(F)(F)F)nc1-c1ccc(Cn2ncc3cnc(-c4c(OC5CC5)ncnc4C4CC4)nc32)cc1 [drawing 750],10 to 100
10,COCCOc1ncnc(C)c1-c1ncc2cnn(Cc3ccc(-n4nc(C(F)(F)F)cc4C)cc3)c2n1 [drawing 789],> 200
11,COCCOc1ncnc(C2CC2)c1-c1ncc2cnn(Cc3ccc(-n4nc(C(F)(F)F)cc4C)cc3)c2n1 [drawing 781],100 to 200
12,Cn1cc(C(F)(F)F)nc1-c1ccc(Cn2ncc3cnc(-c4c(C5CC5)ncnc4N4CCCC4)nc32)cc1,> 200
13,CN(C)c1ncnc(C2CC2)c1-c1ncc2cnn(Cc3ccc(-c4nc(C(F)(F)F)cn4C)cc3)c2n1,> 200
14,COc1nc(C)nc(C2CC2)c1-c1ncc2cnn(Cc3ccc(-c4nc(C(F)(F)F)cn4C)cc3)c2n1 [drawing 760],10 to 100
15,Cn1cc(C(F)(F)F)nc1-c1ccc(Cn2ncc3cnc(-c4c(C5CC5)ncnc4N4CCC4)nc32)cc1,> 200
16,[2H]C([2H])([2H])Oc1ncnc(C2CC2)c1-c1ncc2cnn(Cc3ccc(-c4nc(C(F)(F)F)cn4CC)cc3)c2n1 [drawing 744],10 to 100
17,COc1ncnc(C2CCC2)c1-c1ncc2cnn(Cc3ccc(-c4nc(C(F)(F)F)cn4C)cc3)c2n1 [drawing 749],10 to 100
18,COc1nc(C)c(-c2ncc3cnn(Cc4ccc(-c5nc(C(F)(F)F)cn5C)cc4)c3n2)c(OC)n1 [drawing 793],> 200
19,COc1ncnc(C2CC2)c1-c1ncc2cnn(Cc3ccc(-c4nc(C(F)(F)F)cn4C4CCC4)cc3)c2n1 [drawing 732],< 10
20,COc1ncnc(C2CC2)c1-c1ncc2cnn(Cc3ccc(-c4nc(C(F)(F)F)n(C)n4)cc3)c2n1 [drawing 778],10 to 100
21,CC(C)Oc1ncnc(C2CC2)c1-c1ncc2cnn(Cc3ccc(-c4nc(C(F)(F)F)cn4C)cc3)c2n1 [drawing 756],10 to 100
22,COc1ncnc(C2CC2)c1-c1ncc2cnn(Cc3ccc(-n4nc(C#N)cc4C)cc3)c2n1,10 to 100
23,Cn1cc(C(F)(F)F)nc1-c1ccc(Cn2ncc3cnc(-c4c(OC5CCOC5)ncnc4C4CC4)nc32)cc1 (stereo not shown),100 to 200
24,Cc1ncnc(C(C)C)c1-c1ncc2cnn(Cc3ccc(-n4nc(C(F)(F)F)cc4C)cc3)c2n1 [drawing 776],10 to 100
25,[2H]C([2H])([2H])n1cc(C(F)(F)F)nc1-c1ccc(Cn2ncc3cnc(-c4c(OC)ncnc4C4CC4)nc32)cc1,10 to 100
26,Cn1cc(C(F)(F)F)nc1-c1ccc(Cn2ncc3cnc(-c4c(C#N)ncnc4C4CC4)nc32)cc1,10 to 100
27,COc1ncnc(C2CC2)c1-c1ncc2cnn(Cc3ccc(-c4nc(C(F)F)n(C)n4)cc3)c2n1,> 200
28,Cn1cc(C(F)(F)F)nc1-c1ccc(Cn2ncc3cnc(-c4c(OCc5ccccc5)ncnc4C4CC4)nc32)cc1,> 200

# Same assay, conditions: Table 4; 0.05 nM USP1/UAF1, 150 nM ubiquitin-rhodamine
row,SMILES,IC50 [nM]
1,COc1ncnc(C2CC2)c1-c1ncc2nc(C3CCC3)n(Cc3ccc(-n4nc(C(F)(F)F)cc4C)cc3)c2n1 [drawing 823],10 to 100
2,COc1ncnc(C2CC2)c1-c1ncc2c(OC)nn([C@@H](C)c3ccc(-c4nc(C(F)(F)F)c(Br)n4C)cc3)c2n1 [drawing 802],10 to 100
3,CCc1nc2cnc(-c3c(OC)ncnc3C3CC3)nc2n1Cc1ccc(-n2nc(C(F)(F)F)cc2C)cc1 [drawing 825],10 to 100
4,CCc1nc2cnc(-c3c(OC)ncnc3C3CC3)nc2n1Cc1ccc(-c2nc(C(F)(F)F)cn2C(C)C)cc1 [drawing 808],10 to 100
5,COc1ncnc(C2CC2)c1-c1ncc2nc(C(C)C)n(Cc3ccc(-n4nc(C(F)(F)F)cc4C)cc3)c2n1 [drawing 824],100 to 200
6,COc1ncnc(C2CC2)c1-c1ncc2c(OC)nn([C@@H](C)c3ccc(-c4nc(C(F)(F)F)cn4C(C)C)cc3)c2n1 [drawing 814],10 to 100
7,CC(C)c1ccccc1-c1ncc2ncn(Cc3ccc(-c4nc(C(F)(F)F)cn4C)cc3)c2n1 [drawing 832],10 to 100
8,CCn1cc(C(F)(F)F)nc1-c1ccc(Cn2nc(OC)c3cnc(-c4c(OC)ncnc4C4CC4)nc32)cc1F [drawing 817],10 to 100
9,COCc1nc2cnc(-c3c(OC)ncnc3C3CC3)nc2n1Cc1ccc(-c2nc(C(F)(F)F)cn2C(C)C)cc1 [drawing 804],10 to 100
10,COc1ncnc(C2CC2)c1-c1ncc2nc(C(C)C)n(Cc3ccc(-c4nc(C(F)(F)F)cn4C(C)C)cc3)c2n1 [drawing 805],10 to 100
11,COc1ncnc(C)c1-c1ncc2ncn(Cc3ccc(-n4nc(C(F)(F)F)cc4C)cc3)c2n1,> 200
12,CCOc1ncnc(C2CC2)c1-c1ncc2c(OCC)nn(Cc3ccc(-c4nc(C(F)(F)F)cn4CC)cc3)c2n1 [drawing 815],10 to 100
13,COc1ncnc(C2CC2)c1-c1ncc2nc(C)n(Cc3ccc(-c4nc(C(F)(F)F)cn4C)cc3)c2n1 [drawing 821],100 to 200
14,CCOc1nn(Cc2ccc(-c3nc(C(F)(F)F)cn3CC)cc2)c2nc(-c3c(OC)ncnc3C3CC3)ncc12 [drawing 816],10 to 100
15,COc1ncnc(C2CC2)c1-c1ncc2ncn(Cc3ccc(-c4nc(C(F)(F)F)cn4C(C)C)cc3)c2n1 [drawing 818],10 to 100
